This is an account of results in US10570155B2, “Imidazooxazole derivative having antitumor effect, and pharmaceutical composition including same” (KOREA INSTITUTE OF SCIENCE AND TECHNOLOGY, priority 2016, dated 2020).

Assay [1] relates to A375P cell line. Description: Inhibitory activity against proliferation of A375P melanoma cell line (MTT assay). In kind it is cell-based. Conditions: Homo sapiens. As to the method:
To examine whether the compounds (2II, 9II, 10II, and 12II to 15II) of the present disclosure have remarkable effects, as compared with imidazothiazole-based compounds previously disclosed by the present inventors (M. S. Abdel-Maksoud et al./European Journal of Medicinal Chemistry 95 (2015) 453-463), inhibitory activities thereof against proliferation of A375P cell line which is a melanoma cell line were compared by the following experiments.
A375P cell line purchased from ATCC was cultured in a DMEM medium [containing 10% FBS and 1% penicillin/streptomycin] under 5% CO2 at 37° C. The cultured A375P cell line was collected using 0.05% trypsin-0.02% EDTA, and inoculated at a cell density of 5×10^3 cells per well in a 96-well plate. To measure cell viability, MTT [3-(4,5-dimethylthiazol-2-yl)-2,5-diphenyltetrazolium bromide] assay (CellTiter 96 Assay, Promega) was performed as follows. MTT assay was performed in accordance with the guidelines of CellTiter 96® (Promega).
In general terms: Tetrazolium dyes change colour on reduction, which living cells bring about.

The test system of assay [2] is A375. Description: NCI cancer cell line panel screening (SRB), melanoma cell line A375. Conditions: Homo sapiens, A-375, read-out: IC50 against melanoma cell line in vitro. In kind it is cell-based. As to the method:
(§1) According to the standard protocol (http://dtp.nci.nih.gov/dtpstandard/dwindex/index.isp) of the US National Cancer Institute (NCI) (www.dtp.nci.nih.gov), screening of a cancer cell line panel was performed. Briefly, human cell lines were allowed to grow in an RPMI 1640 medium containing 5% FBS and 2 mM L-glutamine. For a general screening experiment, cells were inoculated in 96-well microtiter plates in 100 μl at a plating density ranging from 5000 cells/well to 40,000 cells/well depending on the doubling time of individual cell lines. After cell inoculation, the microtiter plates were incubated at 37° C., 5% CO2, 95% air, and 100% relative humidity for 24 hours prior to addition of test compounds. 24 hours later, two plates of each cell line were fixed in situ with trichloroacetic acid (TCA) to measure the cell population for each cell line at the time of test compound addition (Tz). Test compounds were solubilized in dimethyl sulfoxide at 400-fold the intended final maximum test concentration, and stored frozen prior to use. At the time of compound addition, an aliquot of frozen concentrate was thawed and diluted to twice the intended final maximum test concentration with a complete medium containing 50 μg/ml of gentamicin. Additional four concentration of 10-fold or ½ log serial dilutions were made to provide a total of five compound concentrations plus control. Aliquots of 100 μl of these different compound dilutions were added to appropriate microtiter wells already containing 100 μl of medium, resulting in the required final compound concentrations.
(§2) Following compound addition, the plates were incubated for additional 48 hours at 37° C., 5% CO2, 95% air, and 100% relative humidity. For adherent cells, the assay was terminated by the addition of cold TCA. Cells were fixed in situ by the gentle addition of 50 μl of cold 50% (w/v) TCA (final concentration, 10% TAC) and incubated at 4° C. for 60 minutes. The supernatant was discarded, and the plates were washed five times with tap water and air-dried. A sulforhodamine B (SRB) solution (100 μl) at 0.4% (w/v) in 1% acetic acid was added to each well, and plates were incubated at room temperature for 10 minutes. After staining, unbound dye was removed by washing five times with 1% acetic acid and the plates were air-dried. Bound stain was subsequently solubilized with 10 mM Trizma base, and the absorbance was read on an automated plate reader at a wavelength of 515 nm. For suspension cells, the methodology was the same except that the assay was terminated by fixing settled cells at the bottom of the wells by gently adding 50 μl of 80% TCA (final concentration, 16% TCA). Using the seven absorbance measurements [time zero (Tz), control growth (C), and test growth rate in the presence of compound at the five concentration levels (Ti)], the growth percentage was calculated at each of the compound concentration levels. Growth inhibition percentage was calculated as follows: [(Ti−Tz)/(C−Tz)]×100 for concentrations for which Ti>/=Tz [(Ti−Tz)/Tz]×100 for concentrations for which Ti<Tz.

Assay [3] has as its system LOX IMVI. Description: NCI cancer cell line panel screening (SRB), melanoma cell line LOX IMVI. Conditions: read-out: IC50 against melanoma cell line in vitro. In kind it is cell-based, human. As to the method: as §1, with “Briefly, human cell lines were allowed to grow in an RPMI 1640 medium containing 5% FBS and 2 mM L-glutamine.” left out
as §2, with “Bound stain was subsequently solubilized with 10 mM Trizma base, and the absorbance was read on an automated plate reader at a wavelength of 515 nm.” left out

In assay [4] the test system is M14. Nature of the assay: NCI cancer cell line panel screening (SRB), melanoma cell line M14. In kind it is cell-based. Conditions: Homo sapiens, read-out: IC50 against melanoma cell line in vitro. As for the experimental part:
as §1, §2

For assay [5], the system named is MDA-MB-435. Description: NCI cancer cell line panel screening (SRB), melanoma cell line MDA-MB-435. In kind it is cell-based. Particulars: Homo sapiens, read-out: IC50 against melanoma cell line in vitro. As for the experimental part: as §1, §2
Assay [6] concerns SK-MEL-2. Description: NCI cancer cell line panel screening (SRB), melanoma cell line SK-MEL-2. Conditions: read-out: IC50 against melanoma cell line in vitro. In kind it is cell-based, human. As to the method: as §1, with “Briefly, human cell lines were allowed to grow in an RPMI 1640 medium containing 5% FBS and 2 mM L-glutamine.” left out
as §2, with “Bound stain was subsequently solubilized with 10 mM Trizma base, and the absorbance was read on an automated plate reader at a wavelength of 515 nm.” left out

The test system of assay [7] is SK-MEL-28. Description: NCI cancer cell line panel screening (SRB), melanoma cell line SK-MEL-28. The format is cell-based, human. Particulars: read-out: IC50 against melanoma cell line in vitro. As for the experimental part: as §1, with “Briefly, human cell lines were allowed to grow in an RPMI 1640 medium containing 5% FBS and 2 mM L-glutamine.” left out
as §2, with “Bound stain was subsequently solubilized with 10 mM Trizma base, and the absorbance was read on an automated plate reader at a wavelength of 515 nm.” left out

In assay [8] the test system is SK-MEL-5. Description: NCI cancer cell line panel screening (SRB), melanoma cell line SK-MEL-5. In kind it is cell-based, human. Conditions: read-out: IC50 against melanoma cell line in vitro. As to the method:
as §1, with “Briefly, human cell lines were allowed to grow in an RPMI 1640 medium containing 5% FBS and 2 mM L-glutamine.” left out
as §2, with “Bound stain was subsequently solubilized with 10 mM Trizma base, and the absorbance was read on an automated plate reader at a wavelength of 515 nm.” left out

The subject of assay [9] is UACC-62. Description: NCI cancer cell line panel screening (SRB), melanoma cell line UACC-62. The format is cell-based. Particulars: Homo sapiens, read-out: IC50 against melanoma cell line in vitro. As for the experimental part: as §1, §2
In assay [10] the target is B-RAF (Homo sapiens (Human), UniProt P15056). Nature of the assay: Protein kinase enzymatic activity (Reaction Biology kinase hotspot, 33P-ATP). The format is biochemical. Conditions: read-out: Inhibitory effect against kinase activity, B-RAF (IC50). As to the method: (§3) Reaction biology kinase hotspot service (http://www.reactionbiology.com) was used to measure IC50. In a final reaction volume of 25 μL, kinase (5 mU to 10 mU) was incubated with 25 mM Tris (pH 7.5), 0.02 mM EGTA, 0.66 mg/ml of myelin basic protein, 10 mM magnesium acetate, and [^33P-ATP] (specific activity of about 500 CPM/pmol, concentration as required). The reaction was initiated by addition of Mg-ATP mix. After incubation for 40 min at room temperature, the reaction was stopped by addition of 5 μl of a 3% phosphoric acid solution. 10 μL of the reaction was then spotted onto a P30 filtermat and washed three times for 5 minutes in 75 mM phosphoric acid and once in methanol prior to drying and scintillation counting.

The target in assay [11] is V600E-B-RAF (Homo sapiens (Human), UniProt P15056, V600E). The assay is described as above. In kind it is biochemical. Particulars: read-out: Inhibitory effect against kinase activity, V600E-B-RAF (IC50). As for the experimental part:
as §3

Read-outs that look alike come from different tables or passages of the source.

Sequence of B-RAF (P15056 whole entry): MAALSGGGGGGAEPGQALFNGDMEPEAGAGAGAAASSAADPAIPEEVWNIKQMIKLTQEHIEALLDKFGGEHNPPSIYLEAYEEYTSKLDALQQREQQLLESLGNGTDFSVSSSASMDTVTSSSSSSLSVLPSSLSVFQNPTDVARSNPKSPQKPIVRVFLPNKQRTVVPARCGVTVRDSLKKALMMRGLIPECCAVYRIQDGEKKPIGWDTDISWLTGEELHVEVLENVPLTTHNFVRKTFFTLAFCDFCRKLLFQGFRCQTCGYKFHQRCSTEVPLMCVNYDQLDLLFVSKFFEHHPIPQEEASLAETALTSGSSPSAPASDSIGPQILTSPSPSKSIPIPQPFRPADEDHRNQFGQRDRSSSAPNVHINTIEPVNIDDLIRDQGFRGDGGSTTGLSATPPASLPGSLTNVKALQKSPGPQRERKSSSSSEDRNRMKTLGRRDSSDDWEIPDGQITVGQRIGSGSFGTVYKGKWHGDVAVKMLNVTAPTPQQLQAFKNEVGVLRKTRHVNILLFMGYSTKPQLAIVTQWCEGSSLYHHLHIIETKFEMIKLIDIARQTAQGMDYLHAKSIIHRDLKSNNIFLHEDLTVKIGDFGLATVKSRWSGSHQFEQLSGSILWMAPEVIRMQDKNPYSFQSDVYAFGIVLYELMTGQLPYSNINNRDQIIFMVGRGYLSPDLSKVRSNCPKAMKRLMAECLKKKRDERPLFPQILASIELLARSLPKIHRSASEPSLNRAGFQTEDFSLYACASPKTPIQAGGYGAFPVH
Sequence of V600E-B-RAF (P15056 whole entry V600E): as the sequence (P15056 whole entry) above, with V600E counted along it

Broadly, the IC50 is the midpoint of a concentration-inhibition curve. In the case of `O=S1(=O)NCCN1CCNc1nccc(-c2c(-c3cccc(O)c3)nc3sccn23)n1`, in [1], the IC50 turned out to be 630 nM.

In the case of `CN1CCN(CCNc2nccc(-c3c(-c4cccc(O)c4)nc4sccn34)n2)S1(=O)=O`, the IC50 in [1] came out at 60 nM.

`O=S1(=O)N(CCNc2nccc(-c3c(-c4cccc(O)c4)nc4sccn34)n2)CCN1Cc1ccccc1` registered an IC50 in assay [1] of 250 nM.

Compound `CC1(C)CN(CCNc2nccc(-c3c(-c4cccc(O)c4)nc4sccn34)n2)S(=O)(=O)N1` returned an IC50 in assay [1] of 870 nM.

`O=S1(=O)NCCCN1CCNc1nccc(-c2c(-c3cccc(O)c3)nc3sccn23)n1` had an IC50 in assay [1] of 720 nM.

In assay [1], `CN1CCCN(CCNc2nccc(-c3c(-c4cccc(O)c4)nc4sccn34)n2)S1(=O)=O` yielded an IC50 of 470 nM.

Take `CC(C)(C)OC(=O)N1CCCN(CCNc2nccc(-c3c(-c4cccc(O)c4)nc4sccn34)n2)S1(=O)=O`: half-maximal inhibition in [1] (IC50) was put at 470 nM.

With `CC1(C)CN(CCNc2nccc(-c3c(-c4cccc(O)c4)nc4occn34)n2)S(=O)(=O)N1` [5II, 2-(2-((4-(6-(3-Hydroxylphenyl)imidazo[2,1-b]oxazol-5-yl)pyrimidin-2-yl)amino)ethyl)-4,4-dimethyl-1,2,5-thiadiazolidine 1,1-dioxide], the IC50 was 870 nM in assay [2]; 2300 nM in assay [3] (Homo sapiens); 320 nM in [4]; 740 nM in [5]; 1600 nM in assay [6] (Homo sapiens); 220 nM in [7] (Homo sapiens). For the same compound, the figures for the IC50 in [8] (Homo sapiens) and in assay [9] were 340 nM and 90 nM, respectively.

With `CN1CCCN(CCNc2nccc(-c3c(-c4cccc(O)c4)nc4occn34)n2)S1(=O)=O` [6II, 2-(2-((4-(6-(3-Hydroxylphenyl)imidazo[2,1-b]oxazol-5-yl)pyrimidin-2-yl)amino)ethyl)-6-methyl-1,2,6-thiadiazinane 1,1-dioxide], the IC50 in assay [2] is 470 nM; in assay [3] (Homo sapiens), 4360 nM; in assay [4] it was 160 nM; in [5], 490 nM; in assay [6] (Homo sapiens), 2280 nM; in assay [7] (Homo sapiens) it was 240 nM. Besides, the results for the IC50 in [8] (Homo sapiens) and in [9] were 240 nM and 58 nM, respectively.

Consider `O=S1(=O)NCCCN1CCNc1nccc(-c2c(-c3cccc(O)c3)nc3occn23)n1` [8II, 2-(2-((4-(6-(3-Hydroxylphenyl)imidazo[2,1-b]oxazol-5-yl)pyrimidin-2-yl)amino)ethyl)-1,2,6-thiadiazinane 1,1-dioxide], for which the IC50 was 58 nM in [2]; 2150 nM in [3] (Homo sapiens); 300 nM in assay [4]; 380 nM in [5]; 380 nM in assay [6] (Homo sapiens); 170 nM in [7] (Homo sapiens). Besides, the results for the IC50 in [8] (Homo sapiens) and in assay [9] were 170 nM and 59 nM, respectively.

Regarding `COc1cccc(-c2nc3sccn3c2-c2ccnc(NCCNS(=O)(=O)c3ccc(C(F)(F)F)cc3)n2)c1` [8III, N-(2-((4-(6-(3-methoxyphenyl)imidazo[2,1-b]thiazol-5-yl)pyrimidin-2-yl)amino)ethyl)-4-(trifluoromethyl)benzenesulfonamide], the IC50 in assay [3] was found to be 3260 nM; in assay [6], 3040 nM; in assay [7], 3680 nM; in assay [8], 1240 nM; in [9], 480 nM; in assay [10], 687 nM. For the same compound, in assay [11], the IC50 was determined as 98 nM.

Compound `CCN1CCN(CCNc2nccc(-c3c(-c4cccc(O)c4)nc4occn34)n2)S1(=O)=O` [drawing 151] returned an IC50 in [1] of 190 nM.

`O=S1(=O)NCCN1CCNc1nccc(-c2c(-c3ccc(F)cc3)nc3sccn23)n1` [reference compound] gave an IC50 in assay [1] of 1900 nM.

Take `CN1CCN(CCNc2nccc(-c3c(-c4ccc(F)cc4)nc4sccn34)n2)S1(=O)=O` [reference compound]: the IC50 in assay [1] was found to be 600 nM.

As for `CCN1CCN(CCNc2nccc(-c3c(-c4ccc(F)cc4)nc4sccn34)n2)S1(=O)=O` [reference compound], 380 nM corresponded to half-maximal inhibition in assay [1] (IC50).

As for `O=S1(=O)N(CCNc2nccc(-c3c(-c4ccc(F)cc4)nc4sccn34)n2)CCN1Cc1ccccc1` [reference compound], the IC50 in [1] is above 10000 nM.

As to `CC(C)(C)OC(=O)N1CCN(CCNc2nccc(-c3c(-c4ccc(F)cc4)nc4sccn34)n2)S1(=O)=O` [reference compound], in assay [1], the IC50 was above 10000 nM.
